Structures can show the parent of a compound that is named as a salt.

In data set [1] the test system is osteolytic lesions associated with multiple myeloma. In words: Treatment of a patient with osteolytic lesions associated with multiple myeloma. The class given is in vivo, human. The settings on record: therapeutic amount. An excerpt: A patient is diagnosed with multiple myeloma and presents with a number of holes or osteolytic lesions. The osteolytic lesions are caused by the rapid growth of myeloma cells, which displace osteoblasts, and disrupting the balance of bone creation and destruction. […] Osteoblast activity is increased relative to osteoclast activity. Pain from bone destruction, fracture and the like is reduced. The osteolytic lesions are caused by the rapid growth of myeloma cells, which displace osteoblasts, and disrupting the balance of bone creation and destruction. […] Osteoblast activity is increased relative to osteoclast activity. Pain from bone destruction, fracture and the like is reduced.

A further data set concerns VEGF. In words: VEGF secretion from MM contact-activated BMSC. The class given is cell-based, human. The text has this: p38 MAPK controls secretion of these factors in-vitro in systems representing the BM milieu.
In addition to promoting vascularization, VEGF is a growth-supporting factor for MM cells. Neovascularization of MM tumors in the marrow allows growth beyond diffusion limitations for gas and nutrient exchange. VEGF is secreted from MM contact-activated BMSC, and this secretion is inhibited by p38 MAPK inhibitor Compound 4 (FIG. 10).

In data set [2] the test system is primary murine marrow derived osteoclast precursors. In words: Osteoclast differentiation, primary murine marrow derived osteoclast precursors. The following applies: di-hydroxy vitamin D induced differentiation; for mature osteoclast formation: 100 nM; for mature osteoclast formation prevented: increasing doses. The class given is cell-based. The method, then:
Inhibition of p38α MAPK prevented osteoclast differentiation in two types of standard in vitro models. In the first, primary murine marrow derived osteoclast precursors are cultured in the presence of di-hydroxy vitamin D to induce differentiation. […] In the second model, primary human marrow-derived osteoclast precursors are cultured in the presence of dihydroxy vitamin D [(OH)2D3] to induce differentiation. In both cases, 100 nM of the exemplary p38 MAPK inhibitors prevents osteoclast formation as measured by tartrate resistant acid phosphatase (TRAP) staining or by staining with 23c6 (a mature osteoclast cell surface marker)(FIG. 14).

Another data set has as its system IL-11. In words: IL-1 and TGFβ induction of IL-11 in BMSC and MM/BMSC cultures. The settings on record: 100 nM. The class given is cell-based, human. The text has this:
p38 MAPK controls secretion of these factors in-vitro in systems representing the BM milieu. […] IL-11 elicits pro-fibrotic responses and promotes osteoclast-driven bone resorption.

Another data set has as its system IM9. Nature of the data set: MM cell proliferation, IM9. The class given is cell-based. The settings on record: IM9, 72-hour exposure.
The subject of a further data set is MIP-1α. In words: MIP-1α production in MM/BMSC co-cultures. The class given is cell-based, human. The text has this: MIP-1α elevation in MM patient serum correlates with disease severity. Unlike many MM-relevant cytokines present in the marrow microenvironment, which are produced mainly by the activated BMSC, MM cells are the primary source of MIP-1α. IL-1 further induces MIP-1α production.

The subject of the next data set is COX-2 mRNA. In words: LPS-induced COX-2 mRNA. The class given is cell-based, human.
For another data set, the target named is T1, COX-2 enzyme (Homo sapiens, UniProt P35354).
T1 sequence (P35354 18-604): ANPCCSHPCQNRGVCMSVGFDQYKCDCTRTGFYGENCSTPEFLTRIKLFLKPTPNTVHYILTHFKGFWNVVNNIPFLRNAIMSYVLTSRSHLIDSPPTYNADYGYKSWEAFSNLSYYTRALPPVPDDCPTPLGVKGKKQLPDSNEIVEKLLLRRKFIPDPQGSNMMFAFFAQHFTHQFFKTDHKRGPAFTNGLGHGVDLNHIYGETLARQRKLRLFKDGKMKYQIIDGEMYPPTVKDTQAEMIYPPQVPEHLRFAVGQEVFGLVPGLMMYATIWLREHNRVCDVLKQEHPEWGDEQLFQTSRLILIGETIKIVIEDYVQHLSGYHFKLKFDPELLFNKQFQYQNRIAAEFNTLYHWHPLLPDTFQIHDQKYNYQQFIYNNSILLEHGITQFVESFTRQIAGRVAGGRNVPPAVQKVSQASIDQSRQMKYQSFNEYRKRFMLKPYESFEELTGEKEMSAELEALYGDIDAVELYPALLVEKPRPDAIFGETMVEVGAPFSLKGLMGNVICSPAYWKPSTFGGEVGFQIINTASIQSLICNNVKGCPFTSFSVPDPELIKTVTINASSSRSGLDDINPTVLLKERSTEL
Nature of the data set: Activity of purified COX-2 enzyme. The class given is biochemical.

A further data set has as its system PGE2. In words: PGE2 levels in LPS-induced human whole blood. The class given is cell-based.
In the next data set the test system is TNF-α. Nature of the data set: LPS-induced TNF-α secretion in whole blood. The class given is cell-based, human. The method, then:
Other in vitro assays can assess the production of TNF-a as a correlation to p38 MAP kinase activity. One such example is a Human Whole Blood Assay. In this assay, venous blood is collected from, e.g., healthy male volunteers into a heparinized syringe and is used within 2 hours of collection. Test compounds are dissolved in 100% DMSO and 1 μl aliquots of drug concentrations ranging from 0 to 1 mM are dispensed into quadruplicate wells of a 24-well microtiter plate (Nunclon Delta SI, Applied Scientific Co., San Francisco, Calif.). Whole blood is added at a volume of 1 ml/well and the mixture is incubated for 15 minutes with constant shaking (Titer Plate Shaker, Lab-Line Instruments, Inc., Melrose Park, Ill.) at a humidified atmosphere of 5% CO2 at 37° C. Whole blood is cultured either undiluted or at a final dilution of 1:10 with RPMI 1640 (Gibco 31800+NaHCO3, Life Technologies, Rockville, Md. and Scios, Inc., Sunnyvale, Calif.). At the end of the incubation period, 10 μl of LPS (E. coli 0111:B4, Sigma Chemical Co., St. Louis, Mo.) is added to each well to a final concentration of 1 or 0.1 μg/ml for undiluted or 1:10 diluted whole blood, respectively. The incubation is continued for an additional 2 hours. The reaction is stopped by placing the microtiter plates in an ice bath, and plasma or cell-free supernates are collected by centrifugation at 3000 rpm for 10 minutes at 4° C. […]

In a further data set the test system is ARH-77. Nature of the data set: MM cell proliferation, ARH-77. The class given is cell-based. The following applies: ARH-77, 72-hour exposure.
Another data set has as its system RPMI. In words: MM cell proliferation, RPMI. The settings on record: 72-hour exposure. The class given is cell-based.
The next data set addresses T2, COX-1 (Homo sapiens, UniProt P23219).
T2 construct: a platelet-derived preparation of COX-1; from tissue; host or cells: platelets
In words: Activity of platelet-derived preparation of COX-1. The class given is biochemical.

Another data set deals with BMSC. In words: BMSC viability, MTS assay of respiratory activity. The class given is cell-based, human. The settings on record: tested up to 50-fold excess of active concentration. How it is done: Neither p38 MAPK inhibition nor high concentrations of p38 MAPK inhibitor (tested up to 50-fold excess of active concentration) affected BMSC viability (FIG. 4). Viability was measured using a standard enzymatic assay of respiratory activity, MTS (3-(4,5-dimethylthiazol-2-yl)-5-(3-carboxymethoxyphenyl)-2-(4-sulfophenyl)-2H-tetrazolium). Results obtained with the p38 MAPK inhibitor are in agreement with published results using a different p38α MAPK inhibitor.
For orientation: Tetrazolium assays rely on reduction of a dye to a coloured formazan, in cell work by metabolically active cells.

The subject of another data set is RANKL mRNA. In words: RANKL mRNA in BMSC and MM/BMSC cultures. The class given is cell-based, human. The settings on record: 100 nM. How it is done:
In addition, 100 nM of these p38 MAPK inhibitors blocks the weaker induction of RANKL by IL-6 in BMSC.

A further data set relates to U266B. Nature of the data set: MM cell proliferation, U266B. The class given is cell-based. The following applies: 72-hour exposure.
For data set [3], the system named is arthritic lesions in the hind paws. Nature of the data set: Chick type II collagen arthritis in rats with established disease. The class given is in vivo, rat. How it is done:
Rats treated intradermally with chick type II collagen develop arthritic lesions in the hind paws similar to human arthritic joints with respect to accumulation of pannus tissue, presence of inflammatory cells, and increased expression of inflammatory cytokines. […] Animals were scored daily by an observer blinded with respect to treatment regimen. At the completion of the study on Day 28, radiographic images were analyzed in a blinded manner, based upon the extent of soft tissue swelling, joint space narrowing, and bone destruction. Animal weights at the beginning and end of the study were also recorded, as weight loss is associated with disease progression in this model.

The subject of a further data set is IL-1β. In words: LPS-induced IL-1β release in human whole blood. The class given is cell-based. The following applies: human whole blood (undiluted). The text has this:
IL-1β illustrates the importance of amplification loops in myeloma-induced cytokine stimulation. IL-1β plays a well-documented role in the induction of multiple cytokines in a “cytokine network” of feedback loops, including strong induction of IL-6. The ability of IL-1 to increase mRNA expression and induce secretion of the MM-relevant cytokines from MM/BMSC cultures is evidence of this role.

In data set [4] the test system is human myeloma (RPM18266) tumor. Nature of the data set: Human myeloma xenograft plasmacytoma model in beige-nude-xid mouse. The class given is in vivo. The method, then:
The p38 MAPK signaling pathway plays an important role in different pathological conditions and specific inhibitors of p38 alpha and beta MAPK block production of the major inflammatory cytokines. Human multiple myeloma (MM) is an incurable neoplasm of terminally differentiated B cells and MM disease progression is affected by immunoregulatory elements such as IL-6 and other cytokines. […] Treatment (90 mg/kg/bid by oral gavage) is initiated in mice with palpable tumor size (˜200 mm^3) as judged by tumor volume.
For orientation: In xenograft studies the graft and the host belong to different species.

T2 sequence (P23219 24-599): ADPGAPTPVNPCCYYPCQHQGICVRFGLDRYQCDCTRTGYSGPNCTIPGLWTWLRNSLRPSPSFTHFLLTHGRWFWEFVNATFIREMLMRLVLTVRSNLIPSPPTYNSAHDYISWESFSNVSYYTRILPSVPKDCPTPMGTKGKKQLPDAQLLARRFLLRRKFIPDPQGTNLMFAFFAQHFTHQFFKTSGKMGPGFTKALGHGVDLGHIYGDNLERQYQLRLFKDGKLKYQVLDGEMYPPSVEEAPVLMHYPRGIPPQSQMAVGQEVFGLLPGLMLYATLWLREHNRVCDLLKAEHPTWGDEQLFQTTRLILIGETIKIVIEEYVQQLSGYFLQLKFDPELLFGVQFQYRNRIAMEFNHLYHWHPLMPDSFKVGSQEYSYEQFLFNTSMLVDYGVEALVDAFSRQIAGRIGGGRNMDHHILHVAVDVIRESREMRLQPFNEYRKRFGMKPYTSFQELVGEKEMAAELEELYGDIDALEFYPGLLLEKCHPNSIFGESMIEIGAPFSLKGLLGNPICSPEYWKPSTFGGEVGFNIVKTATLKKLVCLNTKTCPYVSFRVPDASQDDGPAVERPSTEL

For `C[C@@H]1CN(Cc2ccc(F)cc2)[C@@H](C)CN1C(=O)c1cc2c(C(=O)C(=O)N(C)C)cn(C)c2cc1Cl` [Compound 57 hydrochloride salt], the “pain from bone destruction, fracture and the like” value in data set [1] is listed as “reduced”.

In the case of `COC(=O)C(=O)c1cn(C(=O)c2ccc(Cl)cc2)c2cc(OC)c(C(=O)N3CCC(Cc4ccccc4)CC3)cc12` [Compound 4], the VEGF secretion entry with VEGF is recorded as “inhibited”.

As for `CN(C)C(=O)C(=O)c1c[nH]c2cc(Cl)c(C(=O)N3CCC(Cc4ccc(F)cc4)CC3)cc12` [Compound 162], in data set [2], the mature osteoclast formation entry was “complete blockage” and the “mature osteoclast formation prevented” value is listed as “in a dose dependent manner”.

As for `C[C@@H]1CN(Cc2ccc(F)cc2)[C@@H](C)CN1C(=O)c1cc2c(C(=O)C(=O)N(C)C)cn(C)c2cc1Cl` [Compound 57], the “IL-1 and TGFβ induction of IL-11 at the mRNA and protein levels” value in the data set with IL-11 (BMSC cultures) and with IL-11 (MM/BMSC cultures) was “blocked” in each case. The reduction in proliferation result with IM9, in the data set with ARH-77, in the data set on RPMI and with U266B was “about 20%” in each case. Besides, the “IL-1-induced production of MIP-1α” value with MIP-1α is reported as “substantially reduce”. Moreover, in the data set with MIP-1α, the “untreated production of MIP-1α” value is listed as “substantially reduce”. Moreover, the “LPS-induced COX-2 mRNA” value with COX-2 mRNA is “inhibited”. Also, on COX-2 enzyme, the “activity of the purified COX-2 enzyme” value is listed as “did not directly inhibit”. The PGE2 levels result in the data set on PGE2 was “reduced”. Further, the “LPS-induced TNF-α secretion” value in the data set with TNF-α is on record as “dose-dependent reduction”. For the same compound, on COX-1, the “activity of a platelet-derived preparation of COX-1” value is “nor did it inhibit”. For the same compound, the BMSC viability result in the data set with BMSC was “Neither p38α MAPK inhibition nor high concentrations of Compound 57 (tested up to 50-fold excess of active concentration) affected BMSC viability”. The “basal expression of RANKL mRNA” value with RANKL mRNA is given as “blocked”. In addition, the “RANKL mRNA induction by TGFβ and IL-1” value with RANKL mRNA (BMSC cultures) and in the data set on RANKL mRNA (MM/BMSC cultures) was “blocked” in each case. Also, the “induction of RANKL by IL-6” value in the data set with RANKL mRNA (BMSC) is reported as “blocks”. Besides, the clinical score entry in data set [3] (10 mg/kg orally once a day) was “intermediate between the vehicle and 40 mg/kg groups”; in data set [3] (40 mg/kg orally once a day, from third day of treatment to Day 28, vs vehicle), “statistically significant improvement”. In [2], the mature osteoclast formation result is recorded as “complete blockage”. Moreover, in data set [2], the “mature osteoclast formation prevented” value is listed as “in a dose dependent manner”. In the data set with IL-1β, the “LPS-induced IL-1β release” value is on record as “dose-dependent reduction”. Moreover, the “HSP27 expression in tumor cells” value in [4] (mouse, in vivo) is “significantly reduce”. For the same compound, the “p38 expression in tumor cells” value in [4] (mouse, in vivo) is listed as “significantly reduce”. Moreover, the tumor volume result in data set [4] (palpable tumors (~200 mm^3), 90 mg/kg/bid oral gavage, 21 days) was “significantly reduced”; in data set [4] (treatment initiated at pronounced tumor size (~800 mm^3)), “significant reduction”. Also, the “number of neoformed microvessels, histological assessment” value in data set [4] (vs vehicle) is recorded as “significant reduction”. Also, the “tumor volume, histological assessment at the end of dosing” value in data set [4] (vs vehicle) was “significant reduction”.

(Values after patent US20060058296A1, “Treatment of osteolytic lesions associated with multiple myeloma by inhibition of p38 map kinase” (Scios, Inc., priority 2003, published 2006).)
